Test system: LPS-induced release of TNFα from THP-1 cells
Assay: ELISA-based TNFα release assay, LPS-stimulated THP-1 cells
Format: cell-based, human
Conditions: 10 μg/ml, Batimastat 10 μM, LPS 50 ng/ml, 2 hours
Description: In the following study, ELISA-based TNFα release assays were performed to verify the inhibitory effects of the purified antibodies of the present disclosure on LPS-induced release of endogenous TNFα from human THP-1 monocytic cells.
In brief, on day 1, Nunc black MaxiSorp® 96-well plates (Thermo Fisher Scientific, USA) were coated overnight with 100 μl per well of mouse anti-human TNFα capture antibody (provided as part of the DuoSet ELISA kit) at 4 μg/ml TBS at 4° C. On day 2, the capture antibody solution was removed and MaxiSorp® plates were blocked with 300 μl per well of TBS, 1% BSA at room temperature for 3 hours. […] Using an infinite M1000 (Tecan Group, Switzerland) microplate reader, the fluorescence of each well was collected at an excitation wavelength of 435 nm and an emission wavelength of 555 nm. […]

CNC(=O)[C@H](Cc1ccccc1)NC(=O)[C@H](CC(C)C)[C@H](CSc1cccs1)C(=O)NO [Batimastat]
inhibition of LPS-induced release of TNFα from THP-1 cells (antibodies purified from hybridoma supernatants): 96.2% | inhibition of LPS-induced release of TNFα from THP-1 cells (recombinant antibodies (Expi293F)): 96.2%

Source: patent publication US20240174744A1, “METHODS OF TREATMENT USING PROTEIN BINDERS TO IRHOM2 EPITOPES” (SCIRHOM GMBH, priority 2021, published 2024)
